This passage reports MIC and Activity results from ChEMBL document CHEMBL2062489, “Design, synthesis and biological evaluation of simplified side chains of the macrolide antibiotic etnangien” (2012).

In general, MIC refers to the smallest concentration in the dilution series that meets the test's criterion for growth inhibition. Higher therefore signals a less susceptible organism.

SMILES strings stand for the structures. Converted amounts (≈) assume the structure as drawn. The source made the active and inactive calls.

The subject of one experiment is Staphylococcus aureus. Description: Antimicrobial activity against Staphylococcus aureus by serial dilution method. Format: functional.
The test system of the next experiment is Bacillus subtilis. Description: Antimicrobial activity against Bacillus subtilis by serial dilution method. The class given is functional.
The subject of experiment [1] is Corynebacterium glutamicum. Briefly: Antimicrobial activity against Corynebacterium glutamicum by serial dilution method. Format: functional.
The subject of another experiment is Mycolicibacterium phlei. Briefly: Antimicrobial activity against Mycobacterium phlei by serial dilution method. The class given is functional.
Another experiment has as its system Micrococcus luteus. Description: Antimicrobial activity against Micrococcus luteus by serial dilution method. Format: functional.
Another experiment relates to Escherichia coli. Briefly: Antimicrobial activity against Escherichia coli by serial dilution method. The class given is functional.
Another experiment relates to Saccharomyces cerevisiae. Description: Antimicrobial activity against Saccharomyces cerevisiae by serial dilution method. The class given is functional.
For another experiment, the system named is Agromyces mediolanus. Description: Antimicrobial activity against Corynebacterium mediolanum by serial dilution method. Format: functional.
The subject of a further experiment is Gordonia rubripertincta. Description: Antimicrobial activity against Nocardia coralline by serial dilution method. The class given is functional.
Another experiment relates to Mycobacterium sp. Briefly: Antimicrobial activity against Mycobacterium sp. by serial dilution method. Format: functional, organism-based.

For the molecule `COC(=O)CC/C=C/[C@@H](O)C/C=C/C=C/C=C/C=C/C=C/[C@@H](O)[C@@H](C)CO`, the MIC in the experiment on Staphylococcus aureus is greater than 80 µg/mL; in the experiment on Bacillus subtilis it was greater than 80 µg/mL; in experiment [1], greater than 80 µg/mL; with Mycolicibacterium phlei, greater than 40 µg/mL; against Micrococcus luteus, greater than 80 µg/mL; against Escherichia coli it was greater than 80 µg/mL. Further, the MIC against Saccharomyces cerevisiae and against Agromyces mediolanus was greater than 80 µg/mL throughout.
Take `COC(=O)CC/C(C)=C/[C@@H](O)C/C=C/C=C/C=C/C=C/C=C/C(C)=C/[C@@H](O)[C@@H](C)COCc1ccc(OC)cc1`: the MIC (in the experiment on Staphylococcus aureus; against Bacillus subtilis; in experiment [1]; against Mycolicibacterium phlei; in the experiment on Micrococcus luteus; in the experiment on Escherichia coli) was greater than 40 µg/mL throughout. For the same molecule, the minimal inhibitory concentration (MIC) against Saccharomyces cerevisiae and with Agromyces mediolanus was greater than 40 µg/mL throughout.
In the case of `COC(=O)CC/C=C/[C@@H](O)C/C=C/C=C/C=C/CC/C=C/C=C/[C@@H](O)[C@@H](C)COCc1ccc(OC)cc1`, the MIC is greater than 80 µg/mL against Staphylococcus aureus; greater than 80 µg/mL against Bacillus subtilis; greater than 80 µg/mL in experiment [1]; greater than 40 µg/mL in the experiment with Mycolicibacterium phlei; greater than 80 µg/mL against Micrococcus luteus; greater than 80 µg/mL in the experiment on Escherichia coli. Besides, the MIC with Saccharomyces cerevisiae and against Agromyces mediolanus was greater than 80 µg/mL throughout.
For the molecule `CO[C@@H]1C/C=C\C=C\C[C@H](C)[C@@H](O)[C@H](C)[C@@H](O)[C@H](C)[C@H](O)CC(=O)O[C@H]([C@H](C)[C@H](O)/C=C(C)/C=C/C=C/C=C/C=C/C=C/C[C@H](O)/C(C)=C/CCC(=O)O)C[C@H](O)CCC1` [ETNANGIEN], the MIC in the experiment on Staphylococcus aureus was 1 µg/mL (≈ 1.19 µM); in the experiment with Bacillus subtilis it was 10 µg/mL (≈ 11.9 µM); in experiment [1], 0.03 µg/mL (≈ 0.0357 µM); with Mycolicibacterium phlei, 0.12 µg/mL (≈ 0.143 µM); against Micrococcus luteus, 0.39 µg/mL (≈ 0.464 µM); against Escherichia coli, greater than 80 µg/mL. In addition, the MIC is greater than 80 µg/mL against Saccharomyces cerevisiae and 0.06 µg/mL (≈ 0.0713 µM) against Agromyces mediolanus. For the same molecule, the outcome in the experiment on Gordonia rubripertincta and in the experiment on Mycobacterium sp. was Active.
As to `COC(=O)CC/C=C/[C@@H](O)C/C=C/C=C/C=C/CC/C=C/C=C/[C@@H](O)[C@@H](C)CO`, the MIC against Staphylococcus aureus is 80 µg/mL (≈ 198 µM); with Bacillus subtilis it was 20 µg/mL (≈ 49.4 µM); in [1], 80 µg/mL (≈ 198 µM); with Mycolicibacterium phlei, greater than 40 µg/mL; against Micrococcus luteus, greater than 80 µg/mL; with Escherichia coli it was greater than 80 µg/mL. Further, the values for the MIC in the experiment with Saccharomyces cerevisiae and in the experiment with Agromyces mediolanus were greater than 80 µg/mL and 40 µg/mL (≈ 98.9 µM), respectively.
On to `COC(=O)CC/C=C/[C@@H](O)C/C=C/C=C/C=C/C=C/C=C/[C@@H](O)[C@@H](C)COCc1ccc(OC)cc1`, for which the MIC in the experiment with Staphylococcus aureus is greater than 80 µg/mL; in the experiment with Bacillus subtilis, greater than 80 µg/mL; in [1], 80 µg/mL (≈ 161 µM); with Mycolicibacterium phlei, greater than 40 µg/mL; against Micrococcus luteus, greater than 80 µg/mL; in the experiment on Escherichia coli it was greater than 80 µg/mL. The MIC in the experiment with Saccharomyces cerevisiae and with Agromyces mediolanus was greater than 80 µg/mL in each case.
Consider `COC(=O)CC/C=C(\C)[C@@H](O)C/C=C/C=C/C=C/C=C/C=C/C(C)=C/[C@@H](O)[C@@H](C)[C@@H]1C[C@H](O)CCC[C@H](OC)C/C=C\C=C\C[C@H](C)[C@@H](O)[C@H](C)[C@@H](O)[C@H](C)[C@H](O)CC(=O)O1` [ETNANGIEN METHYL ESTER], for which the MIC is 2.5 µg/mL (≈ 2.92 µM) in the experiment on Staphylococcus aureus; 20 µg/mL (≈ 23.4 µM) in the experiment with Bacillus subtilis; 0.24 µg/mL (≈ 0.281 µM) in [1]; 0.06 µg/mL (≈ 0.0702 µM) in the experiment with Micrococcus luteus; greater than 20 µg/mL against Escherichia coli; greater than 40 µg/mL in the experiment on Saccharomyces cerevisiae. For the same molecule, the result with Gordonia rubripertincta and in the experiment with Mycobacterium sp. was Active.
